pEC50: −log10 of the molar value. Marks after values point to notes of the source that are not given here.
Key:
Type in all cases: cell-based, human
NPC1 promoter = assay: qHTS of NPC1 Promoter-Luciferase Reporter Gene Assay (firefly, Huh7); settings: 24 hours
Procedure: (§1) qHTS of NPC1 Promoter-Luciferase Reporter Gene Assay. For the second primary screen, a promoter assay was developed by engineering a vector using approximately 1.5 kb of the NPC1 promoter to drive the expression of the firefly luciferase reporter gene. Thus, NPC1 promoter activation results in luciferase expression. This vector was used to generate Huh7 cell lines stably expressing the NPC1-luciferase vector. […] Cells were plated for assays in OPTI-MEM I reduced-serum medium supplemented with 10% FBS at 1,500 cells/well in 5 μL in 1,536-well white opaque plates with 23 nL/well of test compound in DMSO solution. The assay plates were incubated at 37° C. for 24 hours, after which 3 μL/well BriteLite plus luciferase detection reagent mixture (Perkin Elmer) was added. Luminescence signal was measured in a ViewLux plate reader (Perkin Elmer) after a 10 minute incubation at room temperature.

Rab9 promoter = assay: qHTS of Rab9 Promoter-Luciferase Reporter Gene Assay (firefly, Huh7); settings: 24 hours
Procedure: as §1, with “Rab9” for “NPC1”, “the” for “the second”, “Rab9-luciferase” for “NPC1-luciferase”

[1] = test system: NPC1 patient cell fibroblasts; assay: Filipin Staining Assay to Detect Free Cholesterol Accumulation in NPC Cells; settings: filipin fluorescence relative to untreated cells; for activity at 1 µM: Homo sapiens, Fibroblast, read-out: % storage at 1 μM
Procedure: Filipin Staining Assay to Detect Free Cholesterol Accumulation in NPC Cells. Compounds were evaluated for their effect on the NPC1 cellular phenotype by staining treated NPC1 patient cell fibroblasts with filipin, which recognizes free unesterified cholesterol. Compounds that upregulate the NPC1 promoter were expected to reduce the filipin staining in treated NPC1 fibroblasts compared to untreated NPC1 fibroblasts, indicating clearance of unesterified cholesterol. Conversely, inhibitors of the NPC1 promoter were expected to increase filipin staining in wild-type fibroblasts, thus indicating the emergence of an NPC-like phenotype. Briefly, cells were grown in lipoprotein-deficient medium for 3-4 days, and then the medium was replaced and supplemented with test compound plus 50 μg/mL low-density lipoprotein (LDL). After 24-48 hours, cells were stained with filipin and scored under the 40× magnification filter using the integrated morphometry function in the Metavue program (Molecular Devices). Test compounds that decreased the intensity of filipin fluorescence to less than 50% of untreated cells are considered of particular interest.

SMILES | pEC50 (NPC1 promoter) | NPC1 Eff. (NPC1 promoter) | pEC50 (Rab9 promoter) | Rab9 Eff. (Rab9 promoter) [%] | % storage at 1 μM [1] [%] | further results
CC(=O)c1c(C)[nH]c(C(=O)Nc2cccc(S(=O)(=O)Nc3ccc(Br)c(F)c3)c2)c1C [Example 23] | 4.81 | 71^a % | – | – | – | –
Cc1cccc(C(=O)Nc2cccc(S(=O)(=O)N(C)C)c2)c1 [Example 15] | 5.21 | 81% | 4.71 | 75 | – | –
CC(=O)c1c(C)[nH]c(C(=O)Nc2ccc(OCCCN(C)C)c(S(=O)(=O)Nc3ccc(Br)cc3)c2)c1C [Example 54] | – | – | – | – | 60 | –
CCc1ccc(NC(=O)c2[nH]c(C)c(C(C)=O)c2C)cc1S(=O)(=O)Nc1ccc(C#N)cc1 [Example 38] | 5.47 | 259% | – | – | 62 | –
Cc1ccc(C(=O)Nc2cccc(S(=O)(=O)N(C)C)c2)cc1 [Example 13] | – | – | 5.16 | 54 | – | NPC1 EC50 (NPC1 promoter): Inactive
COc1ccc(NC(=O)c2[nH]c(C)c(C(C)=O)c2C)cc1S(=O)(=O)C1CCCCCC1 [Example 53] | – | – | – | – | – | activity at 1 µM [1]: 24%; % storage at 0.1 μM [1]: 55%
CC(=O)c1c(C)[nH]c(C(=O)Nc2cccc(S(=O)(=O)N3CCOCC3)c2)c1C [Example 7] | 5.08 | 84% | 4.91 | 122 | – | –
COc1ccc(NC(=O)c2ncc[nH]2)cc1S(=O)(=O)Nc1ccc(Br)cc1 [Example 55] | – | – | – | – | 30 | –
CCc1ccc(NC(=O)c2[nH]c(C)c(C(C)=O)c2C)cc1S(=O)(=O)Nc1cccc(C#N)c1 [Example 33] | 5.57 | 140% | – | – | 35 | % storage at 0.1 μM [1]: 43%
CCN(CC)S(=O)(=O)c1cccc(NC(=O)c2[nH]c(C)c(C(C)=O)c2C)c1 [Example 2] | 5.11 | 155% | 5.06 | 181 | – | –
CC(=O)c1c(C)[nH]c(C(=O)Nc2cccc(S(=O)(=O)N3CCN(C)CC3)c2)c1C [Example 6] | – | – | 4.96 | 82 | – | NPC1 EC50 (NPC1 promoter): Inactive
CN(C)S(=O)(=O)c1cccc(NC(=O)c2ccccc2C(F)(F)F)c1 [Example 16] | 5.92 | 125% | 5.85 | 155 | – | –
COc1ccc(NC(=O)c2c[nH]cn2)cc1S(=O)(=O)Nc1ccc(Br)cc1 [Example 56] | – | – | – | – | 48 | % storage at 0.1 μM [1]: 50%
CC(=O)c1c(C)[nH]c(C(=O)Nc2cccc(S(=O)(=O)N3CCCC3)c2)c1C [Example 3] | 5.21 | 112% | 5.11 | 149 | – | –
CCc1ccc(NC(=O)c2[nH]c(C)c(C(C)=O)c2C)cc1S(=O)(=O)Nc1ccc(Br)cc1 [Example 35] | 6.15 | 208% | – | – | – | –
COc1ccc(NC(=O)c2[nH]c(C)c(C(C)=O)c2C)cc1S(=O)(=O)Nc1cccc(C#N)c1 [Example 40] | 6.05 | 129% | – | – | 29 | –
Cc1cccc(C)c1C(=O)Nc1cccc(S(=O)(=O)N(C)C)c1 [Example 17] | 5.27 | 127% | 5.26 | 131 | – | –

SMILES | pEC50 (NPC1 promoter) | NPC1 Eff. (NPC1 promoter) | pEC50 (Rab9 promoter) | Rab9 Eff. (Rab9 promoter) [%] | % storage at 1 μM [1] [%] | further results
COc1ccc(NC(=O)c2[nH]c(C)c(C(C)=O)c2C)cc1S(=O)(=O)Nc1ccc(Cl)cc1 [Example 58] | – | – | – | – | 58 | –
CC(=O)c1c(C)[nH]c(C(=O)Nc2cccc(S(=O)(=O)Nc3cccc(C#N)c3)c2)c1C [Example 31] | – | – | – | – | 56 | NPC1 EC50 (NPC1 promoter): Inactive
COc1ccc(NC(=O)c2[nH]c(C)c(C(C)=O)c2C)cc1S(=O)(=O)C1CCc2ccccc2CC1 [Example 59] | – | – | – | – | – | activity at 1 µM [1]: 40%
COc1ccc(NC(=O)c2[nH]c(C)c(C(C)=O)c2C)cc1S(=O)(=O)Nc1ccc(C#N)cc1 [Example 41] | 5.06 | 100% | – | – | 58 | –
CC(=O)c1c(C)[nH]c(C(=O)Nc2cccc(S(=O)(=O)Nc3ccc(Br)cc3)c2)c1C [Example 32] | 5.37 | 80% | – | – | – | –
Cc1ccc(C(=O)Nc2cccc(S(=O)(=O)N(C)C)c2)c(C)c1 [Example 18] | 5.27 | 79% | 4.91 | 97 | – | –
CC(=O)c1ccc(C(=O)Nc2cccc(S(=O)(=O)N(C)C)c2)cc1 [Example 20] | – | – | 4.96 | 110 | – | NPC1 EC50 (NPC1 promoter): Inactive
CC(=O)c1c(C)[nH]c(C(=O)Nc2ccc(C)c(S(=O)(=O)Nc3ccc(Br)cc3)c2)c1C [Example 34] | 5.77 | 248% | – | – | – | –
CCc1c(C)[nH]c(C(=O)Nc2cccc(S(=O)(=O)N(C)C)c2)c1C [Example 9] | 5.07 | 47% | – | – | – | Rab9 EC50 (Rab9 promoter): Inactive
CC(=O)c1c(C)[nH]c(C(=O)Nc2cccc(S(=O)(=O)N3CCCCC3)c2)c1C [Example 4] | 5.57 | 163% | 5.77 | 134 | – | –
Cc1cc(C)c(C(=O)Nc2cccc(S(=O)(=O)N(C)C)c2)[nH]1 [Example 8] | 4.76 | 48% | 4.41 | 82 | – | –
COc1ccc(NC(=O)c2c[nH]c(-c3ccccc3)n2)cc1S(=O)(=O)Nc1ccc(Br)cc1 [Example 57] | – | – | – | – | 41 | % storage at 0.1 μM [1]: 70%
CC(=O)c1cccc(C(=O)Nc2cccc(S(=O)(=O)N(C)C)c2)c1 [Example 19] | 5.07 | 40% | 4.71 | 94 | – | –
Cc1ccccc1C(=O)Nc1cccc(S(=O)(=O)N(C)C)c1 [Example 14] | 5.32 | 51% | 4.76 | 114 | – | –
CC(=O)c1c(C)[nH]c(C(=O)Nc2cccc(S(=O)(=O)N3CCCCCC3)c2)c1C [Example 5] | 5.54 to 5.57 | 196-205% | 5.70 | 153 | – | –
CC(=O)c1c(C)c(C(=O)Nc2cccc(S(=O)(=O)N(C)C)c2)n(C)c1C [Example 10] | 4.67 | 83% | – | – | – | Rab9 EC50 (Rab9 promoter): Inactive

— patent US10239830B2, “Benzenesulfonamide upregulators of NPC1 for Neimann-Pick disease and other lysosomal storage disorders” (ICAHN SCHOOL OF MEDICINE AT MOUNT SINAI, priority 2015, dated 2019)
